In patent US9682995B2, “Amino-substituted isothiazoles” (BAYER PHARMA AKTIENGESELLSCHAFT, priority 2013, dated 2017):

Tests used:
[1] = tested on: spindle assembly checkpoint; assay: SAC-Formation - Nocodazole-Induced Assay; assay type: cell-based; details: Homo sapiens; HeLa cells, nocodazole 0.1 μg/ml, 24 h, phosphorylated histone H3 on serine 10
Method in brief: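 HeLa cells were given nocodazole at 0.1 μg/ml final together with compounds (0.005–20 μM, 0.5% DMSO) for 24 h at 37° C. Mitotic cells were counted by phospho-histone H3 Ser10 immunostaining, with cell number from HOECHST 33342, by high-content imaging. The loss of mitotic cells was fitted with a four-parameter Hill equation.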

[2] = tested on: HeLa; assay: Proliferation assay (crystal violet), HeLa; assay type: cell-based; details: Homo sapiens, 96 h, 4 days, read-out: Inhibition of proliferation IC50 HeLa
Method in brief: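 Tumour cells seeded at 1000–5000 cells/well in medium with 10% FCS, dosed after 24 h at 0.001–10 μM (0.5% DMSO final) for 4 days. Cell number read by crystal-violet staining after glutaraldehyde fixation (A595), normalised to zero-point plate (0%) and untreated cells (100%); IC50 from 4-parameter fit.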

IC50 [1]	IC50 [2]	SMILES
56 nM	450 nM	Cc1nsc(Nc2cnc3ccccc3n2)c1C(=O)Nc1ccc(F)c(F)c1 [Example 50, N-(3,4-Difluorophenyl)-3-methyl-5-(quinoxalin-2-ylamino)-1,2-thiazole-4-carboxamide]
270 nM	1900 nM	COc1ncc(NC(=O)c2c(C)nsc2Nc2ccc(C#N)cn2)cc1C [Example 120, 5-[(5-Cyanopyridin-2-yl)amino]-N-(6-methoxy-5-methylpyridin-3-yl)-3-methyl-1,2-thiazole-4-carboxamide]
260 nM	3700 nM	Cc1nsc(Nc2cncc(C(=O)N3CCCC3)n2)c1C(=O)Nc1ccc(F)c(F)c1 [Example 106, N-(3,4-Difluorophenyl)-3-methyl-5-{[6-(pyrrolidin-1-ylcarbonyl)pyrazin-2-yl]amino}-1,2-thiazole-4-carboxamide]
